Data reported in patent US10221163B2 (priority 2015, dated 2019).
Where two headings read alike, the source gives them in different places.

Columns and labels:
[1] = target: IMP-1 (Serratia marcescens, UniProt P52699); experiment: biochemical; type: biochemical; conditions: fluorescence assay, CCF2-FA substrate, 2 pM enzyme, 2 hours at 25° C.; read-out: IMP-1 IC50
Summary of the method: (§1)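 Enzyme activity was measured by fluorescence using CCF2-FA, a cephalosporin-linked 7-hydroxycoumarin/fluorescein substrate, with inhibitor, metallo-β-lactamase and substrate incubated together for 2 hours at 25° C. IC50 came from a 4-parameter fit of inhibition versus log inhibitor concentration.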

[2] = target: NDM-1 (Klebsiella pneumoniae, UniProt C7C422); experiment: biochemical; type: biochemical; conditions: fluorescence assay, CCF2-FA substrate, 1 pM enzyme, 2 hours at 25° C.; read-out: NDM-1 IC50
Summary of the method: as §1

[3] = target: VIM-1 (Pseudomonas aeruginosa (strain ATCC 15692 / DSM 22644 / CIP 104116 / JCM 14847 / LMG 12228 / 1C / PRS 101 / PAO1), UniProt A0A0F7KYQ8); experiment: biochemical; conditions: CCF2-FA substrate, 30 pM enzyme, 2 hours at 25° C.
Summary of the method: as §1

[4] = tested on: Escherichia coli expressing NDM-1 (CLB30005, CLB30016); type: cell-based; conditions: NDM-1 strain, with imipenem 1 μg/ml, 95% inhibition of growth
Summary of the method: (§2)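 Colonies grown overnight on blood agar at 35° C were suspended in saline, diluted 1:100 into 1.1×CAMHB and dispensed. Imipenem was added to 1 μg/ml, then test compound. After 22 hours to 24 hours at 35° C, absorbance was recorded.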

[5] = tested on: Klebsiella pneumoniae expressing VIM-1 (IHMA599644); type: cell-based; conditions: VIM-1 strain IHMA599644, with imipenem 1 μg/ml, 95% inhibition of growth
Summary of the method: as §2

[6] = tested on: Serratia marcescens expressing IMP-1 (CL5741); type: cell-based; conditions: IMP-1 strain CL5741, with imipenem 1 μg/ml, 95% inhibition of growth
Summary of the method: as §2

[7] = tested on: Pseudomonas aeruginosa efflux+ (MB9798), IMP-1; type: cell-based; set-up: Concentration of metallo-β-lactamase inhibitor which restores susceptibility of efflux + (MB9798) strain to imipenem: unit not given here; conditions: efflux+ MB9798; imipenem at 2 μg/mL; in the presence of a class A, C, D serine β-lactamase inhibitor closely related to relebactam
Summary of the method: (§3)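 Steps: add fixed imipenem and/or ceftazidime (usually CLSI breakpoint) and fixed AmpC-directed class A/C inhibitor to microbroth MIC wells; titrate MBL inhibitor; record concentration regaining susceptibility for each PAO1-derived strain; divide efflux+ by efflux− value.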

[8] = tested on: Pseudomonas aeruginosa efflux− (MB9799), IMP-1; type: cell-based; conditions: efflux− MB9799; imipenem at 2 μg/mL; in the presence of a class A, C, D serine β-lactamase inhibitor closely related to relebactam
Summary of the method: as §3

[9] = tested on: Pseudomonas aeruginosa MB9798 vs MB9799; conditions: fold difference between efflux+ (MB9798) and efflux− (MB9799) strains; imipenem at 2 μg/mL
Summary of the method: as §3

[10] = fluorescence assay, read-out: VIM-1 IC50

Sequence of IMP-1 (P52699 whole entry, looked up, species assumed): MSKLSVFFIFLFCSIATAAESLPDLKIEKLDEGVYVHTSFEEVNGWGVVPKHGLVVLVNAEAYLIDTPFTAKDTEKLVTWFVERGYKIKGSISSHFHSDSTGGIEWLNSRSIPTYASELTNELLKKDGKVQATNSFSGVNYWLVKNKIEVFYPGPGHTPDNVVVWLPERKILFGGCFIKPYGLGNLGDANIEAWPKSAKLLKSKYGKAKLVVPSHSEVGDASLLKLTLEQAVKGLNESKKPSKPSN
Sequence of NDM-1 (C7C422 whole entry, looked up, species assumed): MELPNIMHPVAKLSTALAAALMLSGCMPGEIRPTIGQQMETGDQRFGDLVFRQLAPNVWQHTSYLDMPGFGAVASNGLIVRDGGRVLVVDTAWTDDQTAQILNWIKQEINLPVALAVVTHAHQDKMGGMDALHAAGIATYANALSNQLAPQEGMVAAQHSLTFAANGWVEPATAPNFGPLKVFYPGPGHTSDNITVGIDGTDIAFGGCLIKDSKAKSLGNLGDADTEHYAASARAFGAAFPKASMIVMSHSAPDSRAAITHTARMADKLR

SMILES | IC50 [1] [nM] | IC50 [2] [nM] | IC50 [3, 10] [nM] | Escherichia coli MITC95 [4] [µM] | Klebsiella pneumoniae MITC95 [5] [µM] | Serratia marcescens MITC95 [6] [µM] | Concentration of metallo-β-lactamase inhibitor which restores susceptibility of efflux + (MB9798) strain to imipenem [7] | Concentration of metallo-β-lactamase inhibitor which restores susceptibility of efflux − (MB9799) strain to imipenem [8] | Efflux ratio [9] | IC50 ([3]; VIM-1 IC50, fluorescence assay) [nM]
NCCNC(=O)c1cc(-c2ccc(S(=O)(=O)NCCN)c(S(N)(=O)=O)c2-c2nn[nH]n2)ccc1N [Example 451, 4-Amino-N-(2-aminoethyl)-4′-(N-(2-aminoethyl)sulfamoyl)-3′-sulfamoyl-2′-(2H-tetrazol-5-yl)-[1,1′-biphenyl]-3-carboxamide] | 4.02 | 1.7 | 0.557 | 0.7813 | 0.7813 | 0.7813 | 1.563 | 0.7813 | 2.00 | –
NCCNS(=O)(=O)c1ccc(-c2ccccc2NC(=O)CN)c(-c2nn[nH]n2)c1S(N)(=O)=O [Example 452] | 6.21 | 1.72 | 0.994 | 3.125 | 6.25 | 3.125 | 6.25 | 1.563 | 4.00 | –
NCCNS(=O)(=O)c1ccc(-c2cccc(NC(=O)[C@@H](N)CN)c2)c(-c2nn[nH]n2)c1S(N)(=O)=O [Example 453, (S)-2,3-Diamino-N-(4′-(N-(2-aminoethyl)sulfamoyl)-3′-sulfamoyl-2′-(2H-tetrazol-5-yl)-[1,1′-biphenyl]-3-yl)propanamide] | 3.52 | 0.87 | 0.244 | 1.563 | 3.125 | 3.125 | 3.125 | 1.563 | 2.00 | –
NCCNS(=O)(=O)c1ccc(-c2cccc(NC(=O)[C@H](N)CO)c2)c(-c2nn[nH]n2)c1S(N)(=O)=O [Example 454, (R)-2-amino-N-(4′-(N-(2-aminoethyl)sulfamoyl)-3′-sulfamoyl-2′-(2H-tetrazol-5-yl)-[1,1′-biphenyl]-3-yl)-3-hydroxypropanamide] | 3.46 | 0.757 | 0.262 | 1.563 | 6.25 | 3.125 | 3.125 | 1.563 | 2.00 | –
NCCNS(=O)(=O)c1ccc(-c2cccc3c2CCCN3)c(-c2nn[nH]n2)c1S(N)(=O)=O [Example 455, N1-(2-Aminoethyl)-4-(1,2,3,4-tetrahydroquinolin-5-yl)-3-(2H-tetrazol-5-yl)benzene-1,2-disulfonamide] | 0.53 | 0.216 | 0.163 | 1.563 | 3.125 | 3.125 | 12.5 | 1.563 | 8.00 | –
NCCNc1cc(-c2ccc(S(=O)(=O)NCCN)c(S(N)(=O)=O)c2-c2nn[nH]n2)ccn1 [Example 456, N1-(2-Aminoethyl)-4-(2-((2-aminoethyl)amino)pyridin-4-yl)-3-(2H-tetrazol-5-yl)benzene-1,2-disulfonamide] | 3.77 | 1.56 | 0.545 | 0.7813 | 1.563 | 0.7813 | 1.563 | 0.7813 | 2.00 | –
NCCNc1cc(-c2ccc(S(=O)(=O)NCCO)c(S(N)(=O)=O)c2-c2nn[nH]n2)ccn1 [Example 457, 4-(2-((2-aminoethyl)amino)pyridin-4-yl)-N1-(2-hydroxyethyl)-3-(2H-tetrazol-5-yl)benzene-1,2-disulfonamide] | 5.29 | 3.68 | 0.49 | 1.563 | 6.25 | 3.125 | 50 | 1.563 | 31.99 | –
NCCNc1cc(-c2ccc(S(=O)(=O)N[C@@H]3CCNC3)c(S(N)(=O)=O)c2-c2nn[nH]n2)ccn1 [Example 458, (R)-4-(2-((2-aminoethyl)amino)pyridin-4-yl)-N1-(pyrrolidin-3-yl)-3-(2H-tetrazol-5-yl)benzene-1,2-disulfonamide] | 3.77 | 0.532 | 0.132 | 0.7813 | 1.563 | 1.563 | 3.125 | 0.7813 | 4.00 | –
NCCNc1ncccc1-c1ccc(S(=O)(=O)N[C@@H]2CCNC2)c(S(N)(=O)=O)c1-c1nn[nH]n1 [Example 459, (R)-4-(2-((2-Aminoethyl)amino)pyridin-3-yl)-N1-(pyrrolidin-3-yl)-3-(2H-tetrazol-5-yl)benzene-1,2-disulfonamide] | 12.5 | 1.17 | 0.172 | 0.3906 | 1.563 | 1.563 | 3.125 | 1.563 | 2.00 | –
C[C@H](CN)NS(=O)(=O)c1ccc(-c2cccnc2NCCN)c(-c2nn[nH]n2)c1S(N)(=O)=O [Example 460, (R)-4-(2-((2-aminoethyl)amino)pyridin-3 yl)-N1-(1-aminopropan-2-yl)-3-(2H-tetrazol-5-yl)benzene-1,2-disulfonamide] | 4.63 | 0.603 | 0.148 | 0.7813 | 1.563 | 1.563 | 3.125 | 1.563 | 2.00 | –
NCCNS(=O)(=O)c1ccc(-c2ccnc(CN)c2)c(-c2nn[nH]n2)c1S(N)(=O)=O [Example 461, N1-(2-Aminoethyl)-4-(2-(aminomethyl)pyridin-4-yl)-3-(2H-tetrazol-5-yl)benzene-1,2-disulfonamide] | 50.4 | 42.1 | 4.77 | 1.563 | 6.25 | 3.125 | 12.5 | 3.125 | 4.00 | –
NCc1nc(-c2cccc(-c3ccc(S(=O)(=O)N[C@H]4CNC[C@H]4N)c(S(N)(=O)=O)c3-c3nn[nH]n3)c2)c[nH]1 [Example 462] | 1.29 | 0.0954 | – | 1.563 | 1.563 | 1.563 | 1.563 | 0.7813 | 2.00 | 0.227
